Laboratory results as given in ChEMBL document CHEMBL6134880, “Targeting Oncogenic Pathways: Advances in KRAS, CDK, EGFR, and PROTAC-Based Therapies” (ACS Med Chem Lett, 2025).

How the values were obtained:
[1] = target: SOS1-KRAS (Homo sapiens, UniProt P01116, G12D); assay: (§1) Inhibition of GST-tagged KRAS G12D mutant (2 to 169 residues) (unknown origin)/SOS1 catalytic domain (564 to 1069 residues) (unknown origin) protein-protein interaction preincubated with compound for 60 mins followed by SOS1 and GTP-DY-647P1 addition and measured after 30 mins by fluorescence based nucleotide exchange assay; assay type: protein-complex assay
[2] = as §1, with “G12V” for “G12D”, “90” for “30”; design: species or system Homo sapiens

Row | Compound | IC50 [1] [nM] | IC50 [2] [nM]
1 | N#Cc1c(N)sc2c1C1(CC2)CN(c2nc(OCC3(CN4CCOCC4)CC3)nc(N3C[C@H]4CC[C@@H](C3)N4)n2)C1 | < 10 | 10
2 | C=C1CN2CCCC2(COc2nc(N3CC4(CCc5sc(N)c(C#N)c54)C3)nc(N3CCC[C@@](C)(O)C3)n2)C1 (some centres undefined) | < 10 | < 10
3 | CC1(O)CCN(c2nc(OCC3(CN4CCOCC4)CC3)nc(N3CC4(CCc5sc(N)c(C#N)c54)C3)n2)CC1 | < 10 | < 10
4 | N#Cc1c(N)sc2c1C1(CC2)CN(c2nc(OC[C@@]34CCCN3C[C@H](F)C4)nc(N3CCCC(C#N)CC3)n2)C1 (some centres undefined) | 10 | < 10
5 | CN(C)CC1(COc2nc(N3CC4(CCc5sc(N)c(C#N)c54)C3)nc(N3CCC[C@@](C)(O)C3)n2)CC1(F)F (some centres undefined) | < 10 | < 10
6 | N#Cc1c(N)sc2c1C1(CC2)CN(c2nc(OC[C@@]34CCCN3C[C@H](F)C4)nc(N3CCCCC(O)C3)n2)C1 (some centres undefined) | 10 | < 10
7 | C[C@@]1(O)CCCN(c2nc(OC[C@@]34CCCN3C[C@H](F)C4)nc(N3CC4(CCc5sc(N)c(C#N)c54)C3)n2)C1 | < 10 | < 10
8 | C[C@@]1(O)C[C@@H](O)CN(c2nc(OC[C@@]34CCCN3C[C@H](F)C4)nc(N3CC4(CCc5sc(N)c(C#N)c54)C3)n2)C1 | < 10 | < 10
9 | C[C@@]1(O)CCCN(c2nc(OC[C@@]34CCCN3C[C@H](F)C4)nc(N3CC4(C3)SCc3sc(N)c(C#N)c34)n2)C1 | < 10 | < 10
10 | CC1(O)CCCCN(c2nc(OC[C@@]34CCCN3C[C@H](F)C4)nc(N3CC4(CCc5sc(N)c(C#N)c54)C3)n2)C1 (some centres undefined) | 10 | < 10
11 | N#Cc1c(N)sc2c1C1(CC2)CN(c2nc(OC[C@@]34CCCN3C[C@H](F)C4)nc(N3CCCC4(C3)NC(=O)NC4=O)n2)C1 (some centres undefined) | < 10 | < 10
12 | N#Cc1c(N)sc2c1C1(CC2)CN(c2nc(OCC3(CN4CCOCC4)CC3)nc(N3CCCC4(C3)NC(=O)NC4=O)n2)C1 (centres undefined) | < 10 | < 10
